Values quoted from earlier work as cited in US20240050377A1, “ORAL SOLID CANNABINOID OIL COMPOSITION FOR TREATING CENTRAL NERVOUS SYSTEM DISORDERS” (SOCIETE DES PRODUITS NESTLE S.A., priority 2021, published 2024).
Several values for one entry are separate records, joined by “and”; a condition that tells them apart may be missing. Identical values can stand only once. Like-named read-outs stand apart in the source and are kept apart here.

Key:
[1] = humans
[2] = low pH of the stomach; simulated gastric fluid

In the case of `C=C(C)[C@@H]1CCC(C)=C[C@H]1c1c(O)cc(CCCCC)cc1O` [CBD, cannabidiol], the mean half-life ([1]; aerosol administration) is given as 1.1 to 2.4 h, the mean half-life ([1]; oral lipid capsule administration) is given as 2.95 h and 3.21 h and the mean half-life ([1]; single oral administration) is given as 1.09 to 1.97 h. For the same molecule, the “degradation in stomach environment” value [2] was “high levels of CBD degradation”.
